# Assay results as given in patent US20220184081A1, “ANTIPRURITIC AGENT USING PAC1 RECEPTOR ANTAGONIST” (KAGOSHIMA UNIVERSITY, priority 2019, published 2022).
# Legend:
# [1] = tested on: dry skin itch mouse model; assay: Dry skin itch mouse model (AEW treatment); assay type: in vivo, ICR mice; settings: oral PA-8 3, 10 or 30 mg/kg; observed 1 hour from 30 minutes after administration; FIG. 3
# Method: The present test was carried out with reference to the method of Miyamoto et al. that is a test system published as a method for evaluating itch in animals (Miyamoto T., Nojima H., Shinkado T., et al.: Itch-associated response induced by experimental dry skin in mice, Jpn. J. Phamacol., 88, 285-292, 2002).
# Five-week-old ICR mice (40 mice) were each placed in a cage, and were then conditioned for 1 week. Thereafter, three days before initiation of the test, the rostral back of each mouse was shaved (treatment method A). The thus shaved 40 mice were divided into 5 groups (8 mice/group), namely, into a 3 mg/kg PA-8 oral (p.o.) administration group, a 10 mg/kg PA-8 oral (p.o.) administration group, a 30 mg/kg PA-8 oral (p.o.) administration group, a comparative group, and a control group.
# In the PA-8 administration groups, the mice, which had undergone a shaving treatment (treatment method A), were subjected to ether anesthesia. Thereafter, a cotton (2×2 cm) impregnated with a mixed solution of acetone (A): diethyl ether (E) (1:1) was applied to the rostral back of each mouse for 15 seconds, and then, a cotton impregnated with ion exchange water (W) was applied thereto for 30 seconds [hereinafter, a series of treatments are abbreviated as an AEW treatment (treatment method B)]. The AEW treatment was carried out twice a day, with intervals of 8 hours, for 5 days. […]
# mouse PAC1 receptor = molecular target: T1, mouse PAC1 receptor (Mus musculus, UniProt P70205); assay: CREB phosphorylation by PACAP stimulus, Western blot, PAC1/CHO cells; assay type: cell-based
# T1 construct: expressed in transfected cells; host or cells: CHO cells
# T1 sequence (P70205 21-496): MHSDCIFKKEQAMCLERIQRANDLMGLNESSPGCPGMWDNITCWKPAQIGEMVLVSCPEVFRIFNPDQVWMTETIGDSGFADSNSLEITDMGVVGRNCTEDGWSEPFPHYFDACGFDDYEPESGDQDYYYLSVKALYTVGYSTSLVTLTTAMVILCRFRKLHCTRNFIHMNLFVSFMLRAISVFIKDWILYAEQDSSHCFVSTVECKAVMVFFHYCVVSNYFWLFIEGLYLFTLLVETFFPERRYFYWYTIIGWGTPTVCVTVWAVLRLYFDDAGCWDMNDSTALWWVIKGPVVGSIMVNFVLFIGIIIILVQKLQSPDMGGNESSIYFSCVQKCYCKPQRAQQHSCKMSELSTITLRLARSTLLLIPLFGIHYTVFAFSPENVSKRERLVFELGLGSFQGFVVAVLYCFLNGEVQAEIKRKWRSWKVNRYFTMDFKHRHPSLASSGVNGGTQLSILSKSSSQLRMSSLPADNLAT
# Method: The effect of each compound on the phosphorylation of CREB (cAMP-responsive element-binding protein) produced by a PACAP stimulus was examined by Western blot analysis using an anti-phosphorylated CREB (pCREB) antibody with a mouse PAC1 receptor-expressing CHO cells (PAC1/CHO cells) and a mouse VPAC1 receptor-expressing CHO cells (VPAC1/CHO cells).
# Specifically, treatment with a compound (PA-8, compound 2j and compound 2o) at 10 pM to 10 nM or a solvent therefor, DMSO (VEH: 0.1% DMSO-containing phosphate buffer solution) was performed for 30 minutes, 1 nM PACAP was then added, and protein was recovered within 30 minutes after a PACAP stimulus.
# The effect of each compound on the phosphorylation of CREB (cAMP-responsive element-binding protein) produced by a PACAP stimulus was examined by Western blot analysis using an anti-phosphorylated CREB (pCREB) antibody with a mouse PAC1 receptor-expressing CHO cells (PAC1/CHO cells).
# [2] = tested on: chloroquine-induced itch behavior in mice; assay: Itch behavior induced by chloroquine intradermal administration; assay type: in vivo, mouse; settings: intrathecal pre-administration (i.t., 10 minutes before i.d.), 1 nmol; chloroquine 100 μg/10 μL; FIG. 10
# Method: Chloroquine (100 μg/10 μL) was intradermally injected into the waist of each mouse (intradermal injection, i.d.). The reaction of biting, licking or scratching the injected site was defined as itch behavior, and the behavioral time was counted every 5 minutes. […] DMSO (10% solution, dissolved in normal saline) is a solvent for PA-8 or PA-9.
# [3] = tested on: atopic dermatitis mouse model; assay: Atopic dermatitis mouse model (DNFB); assay type: in vivo, ICR mice; settings: 30 mg/kg p.o. 30 minutes before 1 hour video observation; FIG. 13
# Method: The present test was carried out with reference to the method of Kitamura et al. that is a test system published as a method for evaluating itch in animals (Kitamura A., Takata R., Aizawa S., et al.: A murine model of atopic dermatitis can be generated by painting the dorsal skin with hapten twice 14 days apart, Scientific Rep., 8: 5988, 2018).
# Five-week-old ICR mice (30 mice) were each placed in a cage, and were then conditioned for 1 week. Thereafter, three days before initiation of the test, the waist of each mouse was shaved. On the experiment start date, for the purpose of destroying the function of skin barrier, tape stripping was carried out, and 0.15% 2,4-dinitrofluorobenzene (DNFB) solution [acetone/olive oil (3:1)] was applied to the shaved waist of each mouse, using a 100-μIL pipette. Seven days later, the 0.15% DNFB solution was applied thereto once again, and two hours later, video observation was carried out for 1 hour. The shaved 30 mice were divided into 5 groups (6 mice per group), namely, a 30 mg/kg PA-8 oral (p.o.) administration group, a 30 mg/kg compound 2o oral (p.o.) administration group, a 30 mg/kg PA-9 oral (p.o.) administration group, a 30 mg/kg compound 3d (p.o.) administration group, and a solvent administration group (VEH: oral administration of 10% DMSO aqueous solution). Oral administration was carried out 30 minutes before initiation of the video observation.
# An outline of the procedures of a behavioral experiment using the atopic dermatitis mouse model is shown in FIG. 12, and the results obtained by evaluating the time spent in scratching of each group are shown in FIG. 13.
smiles,measurement,setting,value
C=CCOc1ccc(C2CC(=O)Nc3nc(N)[nH]c(=O)c32)cc1OC (centres unmarked) [PA-8],scratching behavior induced by the AEW treatment (time spent in scratching),[1],significantly suppressed
same,CREB phosphorylation by PACAP (1 nM),"mouse PAC1 receptor; PAC1/CHO cells, compound 10 pM to 10 nM for 30 minutes before PACAP, FIG. 4A, 4C, 4D, 5",suppressed CREB phosphorylation
same,receptor selectivity (PAC1 versus VPAC1),mouse PAC1 receptor; concluded from PAC1/CHO and VPAC1/CHO pCREB data,PAC1 receptor selective antagonist
same,chloroquine-induced itch behavior,[2],almost completely suppressed
same,itch behavior induced by the DNFB treatment (time spent in scratching),[3],significantly suppressed
